The text below walks through data of patent publication US11084800B2 (Achillion Pharmaceuticals, Inc., priority 2017, dated 2021).

This experiment addresses Human Factor D (Homo sapiens (Human), UniProt P00746). Put plainly: Human Factor D Assay. Format: biochemical. Summed up: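 Thioester substrate Z-L-Lys-SBz (100 μM) with Ellman's reagent DTNB (100 μM) reports activity of 80 nM human serum-derived enzyme, kinetically at 405 nm over 30 min. Compound preincubated 5 min, room temperature, pH 7.5 Tris/1 M NaCl; IC50 by nonlinear fit of rates.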

[1] abbreviates: Factor D inhibition, assay of Example 10, read-out: IC5 (Stars).
[2] abbreviates: Table 8, Factor D 80 nM, substrate Z-L-Lys-SBz, read-out: IC50.

The structures appear in SMILES notation. pIC50: −log10 of the molar value. Like-named read-outs stand apart in the source and are kept apart here. Bounds are passed on as bounds.

Human Factor D, sequence (P00746 26-253): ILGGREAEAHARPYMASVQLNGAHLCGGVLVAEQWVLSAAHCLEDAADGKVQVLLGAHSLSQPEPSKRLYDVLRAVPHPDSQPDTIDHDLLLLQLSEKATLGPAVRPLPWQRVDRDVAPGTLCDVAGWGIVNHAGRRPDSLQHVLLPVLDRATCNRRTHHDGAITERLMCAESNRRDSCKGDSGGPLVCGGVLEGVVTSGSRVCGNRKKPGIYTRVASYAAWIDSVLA

Take `CC(=O)c1nn(CC(=O)N2[C@H](C(=O)Nc3nc(Br)ccc3Cl)C[C@@]3(Cc4nc(C)no4)C[C@@H]23)c2c(C)cc(-c3cnc(C)nc3)cc12` [Compound 428, (1R,3S,5R)-2-(2-(3-acetyl-7-methyl-5-(2-methylpyrimidin-5-yl)-1H-indazol-1-yl)acetyl)-N-(6-bromo-3-chloropyridin-2-yl)-5-((3-methyl-1,2,4-oxadiazol-5-yl)methyl)-2-azabicyclo[3.1.0]hexane-3-carboxamide]: under setting [1], the pIC50 is more than 6.00.

Consider `CC(=O)c1nn(CC(=O)N2[C@H](C(=O)Nc3nc(Br)ccc3C)C[C@@]3(Cc4nnc(C)o4)C[C@@H]23)c2c(CF)cc(-c3cnc(C)nc3)cc12` [Compound 429, (1R,3S,5R)-2-(2-(3-acetyl-7-(fluoromethyl)-5-(2-methylpyrimidin-5-yl)-1H-indazol-1-yl)acetyl)-N-(6-bromo-3-methylpyridin-2-yl)-5-((5-methyl-1,3,4-oxadiazol-2-yl)methyl)-2-azabicyclo[3.1.0]hexane-3-carboxamide], for which the pIC50 under setting [1] is more than 6.00.

On to `CC(=O)c1nn(CC(=O)N2C[C@](C)(F)C[C@H]2C(=O)Nc2nc(Br)ccc2C)c2ccc(-c3cnc(C)nc3)cc12` [Compound 430, (2S,4R)-1-{2-[3-Acetyl-5-(2-methylpyrimidin-5-yl)indazol-1-yl]acetyl}-N-(6-bromo-3-methylpyridin-2-yl)-4-fluoro-4-methylpyrrolidine-2-carboxamide], for which, under setting [1], the pIC50 is more than 6.00.

Take `Cc1ncc(-c2cc3c(C(N)=O)nn(CC(=O)N4[C@H](C(=O)Nc5nc(Br)c(F)cc5C)C[C@@]5(C)C[C@@H]45)c3c(C)n2)cn1` [Compound 431, 1-(2-((1R,3S,5R)-3-((6-bromo-5-fluoro-3-methylpyridin-2-yl)carbamoyl)-5-methyl-2-azabicyclo[3.1.0]hexan-2-yl)-2-oxoethyl)-7-methyl-5-(2-methylpyrimidin-5-yl)-1H-pyrazolo[3,4-c]pyridine-3-carboxamide]: the pIC50 under setting [1] was more than 6.00.

As to `CC(=O)c1nn(CC(=O)N2C[C@](C)(F)C[C@H]2C(=O)Nc2nc(Br)ccc2C)c2c(C)nc(-c3cnc(C)nc3)cc12` [Compound 432, (2S,4R)-1-(2-(3-acetyl-7-methyl-5-(2-methylpyrimidin-5-yl)-1H-pyrazolo[3,4-c]pyridin-1-yl)acetyl)-N-(6-bromo-3-methylpyridin-2-yl)-4-fluoro-4-methylpyrrolidine-2-carboxamide], the pIC50 under setting [1] is more than 6.00.

With `CC(=O)c1nn(CC(=O)N2C[C@](C)(F)C[C@H]2C(=O)Nc2nc(Br)ccc2C)c2c(C)cc(-c3cnc(C)nc3)cc12` [Compound 433, (2S,4R)-1-(2-(3-acetyl-7-methyl-5-(2-methylpyrimidin-5-yl)-1H-indazol-1-yl)acetyl)-N-(6-bromo-3-methylpyridin-2-yl)-4-fluoro-4-methylpyrrolidine-2-carboxamide], the pIC50 under setting [1] is more than 6.00.

For the compound `CC(=O)c1nn(CC(=O)N2[C@H](C(=O)NCc3cccc(Cl)c3F)C[C@@]3(Cc4nnc(C)o4)C[C@@H]23)c2c(C)cc(-c3cnc(C)nc3)cc12` [Compound 434, (1R,3S,5R)-2-(2-(3-acetyl-7-methyl-5-(2-methylpyrimidin-5-yl)-1H-indazol-1-yl)acetyl)-N-(3-chloro-2-fluorobenzyl)-5-((5-methyl-1,3,4-oxadiazol-2-yl)methyl)-2-azabicyclo[3.1.0]hexane-3-carboxamide], the pIC50 under setting [1] is more than 6.00.

`CC(=O)c1nn(CC(=O)N2[C@H](C(=O)Nc3nc(C(F)(F)F)ccc3C)C[C@@]3(Cc4nnc(C)o4)C[C@@H]23)c2c(C)cc(-c3cnc(C)nc3)cc12` [Compound 435, (1R,3S,5R)-2-(2-(3-acetyl-7-methyl-5-(2-methylpyrimidin-5-yl)-1H-indazol-1-yl)acetyl)-5-((5-methyl-1,3,4-oxadiazol-2-yl)methyl)-N-(3-methyl-6-(trifluoromethyl)pyridin-2-yl)-2-azabicyclo[3.1.0]hexane-3-carboxamide]: under setting [1], the pIC50 was more than 6.00.

On to `Cc1ncc(-c2cc3c(C(N)=O)nn(CC(=O)N4C[C@H]5C[C@H]5[C@H]4C(=O)Nc4nc(Br)ccc4C)c3c(C)n2)cn1` [Compound 436, 1-(2-((1R,25,5S)-2-((6-bromo-3-methylpyridin-2-yl)carbamoyl)-3-azabicyclo[3.1.0]hexan-3-yl)-2-oxoethyl)-7-methyl-5-(2-methylpyrimidin-5-yl)-1H-pyrazolo[3,4-c]pyridine-3-carboxamide], for which the pIC50 under setting [1] was more than 6.00.

For `CSCc1cc(F)c(Br)nc1NC(=O)[C@@H]1C[C@@]2(C)C[C@H]2N1C(=O)Cn1nc(C(C)=O)c2cc(-c3cnc(C)nc3)ccc21` [Compound 438, (1R,5R)-2-(2-(3-Acetyl-5-(2-methylpyrimidin-5-yl)-1H-indazol-1-yl)acetyl)-N-(6-bromo-5-fluoro-3-((methylthio)methyl)pyridin-2-yl)-5-methyl-2-azabicyclo[3.1.0]hexane-3-carboxamide], the pIC50 under setting [1] is more than 6.00.

In the case of `CC(=O)c1nn(CC(=O)N2C[C@H](F)C[C@H]2C(=O)Nc2cccc(I)n2)c2ccc(-c3cnc(C)nc3)cc12` [Compound 439, (2S,4R)-1-(2-(3-acetyl-5-(2-methylpyrimidin-5-yl)-1H-indazol-1-yl)acetyl)-4-fluoro-N-(6-iodopyridin-2-yl)pyrrolidine-2-carboxamide], the pIC50 under setting [1] was more than 6.00.

For the compound `CC(=O)c1nn(CC(=O)N2C[C@H](F)C[C@H]2C(=O)Nc2ccccn2)c2ccc(-c3cnc(C)nc3)cc12` [Compound 440, (2S,4R)-1-(2-(3-acetyl-5-(2-methylpyrimidin-5-yl)-1H-indazol-1-yl)acetyl)-4-fluoro-N-(pyridin-2-yl)pyrrolidine-2-carboxamide], under setting [1], the pIC50 is more than 6.00.

As to `CC(=O)c1nn(CC(=O)N2[C@H](C(=O)Nc3nc(Br)ccc3C)C[C@@]3(CNc4ccn(CC(F)(F)F)n4)C[C@@H]23)c2c(C)cc(-c3cnc(C)nc3)cc12` [Compound 441, (1R,3S,5R)-2-(2-(3-acetyl-7-methyl-5-(2-methylpyrimidin-5-yl)-1H-indazol-1-yl)acetyl)-N-(6-bromo-3-methylpyridin-2-yl)-5-(((1-(2,2,2-trifluoroethyl)-1H-pyrazol-3-yl)amino)methyl)-2-azabicyclo[3.1.0]hexane-3-carboxamide], the pIC50 under setting [1] was more than 6.00.

Consider `CC(=O)c1nn(CC(=O)N2[C@H](C(=O)Nc3nc(Br)ccc3C)C[C@@]3(CNC(=O)COCCOCCNC(=O)COCCOCCNC(=O)CC[C@H](NC(=O)CCCCCCCCCCCCCCCCC(=O)O)C(=O)O)C[C@@H]23)c2cnc(-c3cnc(C)nc3)cc12` [Compound 442, (S)-1-((1R,3S,5R)-2-(2-(3-acetyl-5-(2-methylpyrimidin-5-yl)-1H-pyrazolo[3,4-c]pyridin-1-yl)acetyl)-3-((6-bromo-3-methylpyridin-2-yl)carbamoyl)-2-azabicyclo[3.1.0]hexan-5-yl)-24-carboxy-3,12,21,26-tetraoxo-5,8,14,17-tetraoxa-2,11,20,25-tetraazatritetracontan-43-oic acid], for which, under setting [2], the pIC50 is more than 6.00.

Consider `CCCCCCCCCCCCCCCC(=O)NCCCC[C@H](NC(=O)[C@H](CCC(=O)O)NC(=O)[C@H](Cc1ccc(O)cc1)NC(=O)[C@H](CCC(=O)O)NC(C)=O)C(=O)N[C@@H](CCC(=O)O)C(=O)N[C@@H](Cc1ccc(O)cc1)C(=O)N[C@@H](CCC(=O)O)C(=O)NC[C@@]12C[C@@H](C(=O)Nc3nc(Br)ccc3C)N(C(=O)Cn3nc(C(C)=O)c4cc(-c5cnc(C)nc5)cc(C)c43)[C@@H]1C2` [Compound 443, (4S,7S,10S,13S,16S,19S,22S)-22-acetamido-4-((((1R,3S,5R)-2-(2-(3-acetyl-7-methyl-5-(2-methylpyrimidin-5-yl)-1H-indazol-1-yl)acetyl)-3-((6-bromo-3-methylpyridin-2-yl)carbamoyl)-2-azabicyclo[3.1.0]hexan-5-yl)methyl)carbamoyl)-10,16-bis(2-carboxyethyl)-7,19-bis(4-hydroxybenzyl)-6,9,12,15,18,21-hexaoxo-13-(4-palmitamidobutyl)-5,8,11,14,17,20-hexaazapentacosanedioic acid], for which the pIC50 under setting [2] is 5.00 to 6.00.

For the compound `Cc1ncc(-c2ccc3c(cnn3CC(=O)N3C[C@H](F)C[C@H]3C(=O)Nc3cccc(Br)n3)c2)cn1` [Compound 444, (2S,4R)-N-(6-bromopyridin-2-yl)-4-fluoro-1-(2-(5-(2-methylpyrimidin-5-yl)-1H-indazol-1-yl)acetyl)pyrrolidine-2-carboxamide], under setting [1], the pIC50 was 5.00 to 6.00.

On to `CCc1nn(CC(=O)N2C[C@H](F)C[C@H]2C(=O)Nc2cccc(Br)n2)c2ccc(-c3cnc(C)nc3)cc12` [Compound 445, (2S,4R)-N-(6-bromopyridin-2-yl)-1-(2-(3-ethyl-5-(2-methylpyrimidin-5-yl)-1H-indazol-1-yl)acetyl)-4-fluoropyrrolidine-2-carboxamide], for which, under setting [1], the pIC50 is 5.00 to 6.00.

Turning to `CC(=O)c1nn(CC(=O)N2C[C@H](F)C[C@H]2C(=O)N(C)c2cccc(Br)n2)c2ccc(-c3cnc(C)nc3)cc12` [Compound 446, (2S,4R)-1-(2-(3-acetyl-5-(2-methylpyrimidin-5-yl)-1H-indazol-1-yl)acetyl)-N-(6-bromopyridin-2-yl)-4-fluoro-N-methylpyrrolidine-2-carboxamide], the pIC50 under setting [1] is less than 5.00.

Regarding `CC(=O)c1nn(CC(=O)N2[C@H](C(=O)Nc3cncc(Br)n3)C[C@@]3(Cc4nc(C)no4)C[C@@H]23)c2c(C)cc(-c3cnc(C)nc3)cc12` [Compound 447, (1R,3S,5R)-2-(2-(3-acetyl-7-methyl-5-(2-methylpyrimidin-5-yl)-1H-indazol-1-yl)acetyl)-N-(6-bromopyrazin-2-yl)-5-((3-methyl-1,2,4-oxadiazol-5-yl)methyl)-2-azabicyclo[3.1.0]hexane-3-carboxamide], the pIC50 under setting [1] was more than 6.00.

Regarding `CC(=O)c1cn(CC(=O)N2[C@H](C(=O)Nc3nc(OC(F)(F)F)ccc3C)C[C@@]3(C)C[C@@H]23)c2c(C)cc(-c3cnc(C)nc3)cc12` [Compound 448, (1R,3S,5R)-2-(2-(3-acetyl-7-methyl-5-(2-methylpyrimidin-5-yl)-1H-indo1-1-yl)acetyl)-5-methyl-N-(3-methyl-6-(trifluoromethoxy)pyridin-2-yl)-2-azabicyclo[3.1.0]hexane-3-carboxamide], under setting [1], the pIC50 was more than 6.00.
